The test system of assay [1] is Bel-7402. Nature of the assay: Antitumor activity against human Bel7402 cells assessed as induction of cell death after 48 hrs by MTT assay. The format is functional, cell-based. The following applies: Bel-7402, 48 h. (In general: Tetrazolium dyes change colour on reduction, which living cells bring about.)
Assay [2] relates to K562. Nature of the assay: Antitumor activity against human K562 cells assessed as induction of cell death after 48 hrs by MTT assay. The settings on record: K562, 48 h. The format is functional, cell-based.

Molecules are shown by their SMILES.

Take `C/C(=N\N=C(\N)S)c1cnccn1`: the IC50 (as a rule, the concentration at which inhibition is half-maximal) was 238 µM in assay [1] and 47.5 µM in assay [2].

Take `C/N=C(\S)N/N=C(\C)c1cnccn1`: the half-inhibitory concentration (IC50) came out at 462 µM in assay [1] and 25.9 µM in assay [2].

Turning to `NC(=S)N/N=C(\c1ccccc1)c1ccccn1`, the IC50 in assay [1] is 376 µM; in assay [2] it was 28.2 µM.

As to `CNC(=S)N/N=C(\c1ccccc1)c1ccccn1`, the IC50 in assay [1] turned out to be 0.138 µM; in assay [2], 0.002 µM.

The values above are taken from ChEMBL document CHEMBL1151880, “Cytotoxicity and structure-activity relationships of four alpha-N-heterocyclic thiosemicarbazone derivatives crystal structure of 2-acetylpyrazine thiosemicarbazone” (Bioorg Med Chem Lett, 2009).
